This note sets out measurements from patent US8586591B2, “Aminopyrazine derivative and medicine” (Nippon Shinyaku Co., Ltd., priority 2009, dated 2013).

A word on the IC50: it is the concentration needed to halve the response being measured. Lower therefore signals greater potency in that assay.

In assay [1] the target is T1, JAK2 tyrosine kinase (Homo sapiens, UniProt O60674).
T1 construct: purchased Carnabioscience Co
As to the kind of experiment: Test 1: inhibitory activity to JAK2 tyrosine kinase (ELISA). It is filed as biochemical. The note with it: 25 μM ATP in substrate solution, 30° C. for 1 hour, n=2. A digest of the protocol: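 This is an ELISA read at A450 (HRP anti-phosphotyrosine antibody, TMB) of biotin-peptide phosphorylation captured on streptavidin. Enzyme solution was 0.75 nM JAK2, and the substrate solution was 625 nM peptide with 25 μM ATP in Tris pH 7.5 buffer. The reaction ran 1 h at 30 °C with compounds in duplicate, and IC50 was fitted non-linearly.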
In general terms: In an ELISA, binding on a coated surface is turned into a signal by an enzyme label.

For assay [2], the target named is T2, JAK3 tyrosine kinase (Homo sapiens, UniProt P52333).
T2 construct: purchased Carnabioscience Co
T2 sequence (P52333 1-1124): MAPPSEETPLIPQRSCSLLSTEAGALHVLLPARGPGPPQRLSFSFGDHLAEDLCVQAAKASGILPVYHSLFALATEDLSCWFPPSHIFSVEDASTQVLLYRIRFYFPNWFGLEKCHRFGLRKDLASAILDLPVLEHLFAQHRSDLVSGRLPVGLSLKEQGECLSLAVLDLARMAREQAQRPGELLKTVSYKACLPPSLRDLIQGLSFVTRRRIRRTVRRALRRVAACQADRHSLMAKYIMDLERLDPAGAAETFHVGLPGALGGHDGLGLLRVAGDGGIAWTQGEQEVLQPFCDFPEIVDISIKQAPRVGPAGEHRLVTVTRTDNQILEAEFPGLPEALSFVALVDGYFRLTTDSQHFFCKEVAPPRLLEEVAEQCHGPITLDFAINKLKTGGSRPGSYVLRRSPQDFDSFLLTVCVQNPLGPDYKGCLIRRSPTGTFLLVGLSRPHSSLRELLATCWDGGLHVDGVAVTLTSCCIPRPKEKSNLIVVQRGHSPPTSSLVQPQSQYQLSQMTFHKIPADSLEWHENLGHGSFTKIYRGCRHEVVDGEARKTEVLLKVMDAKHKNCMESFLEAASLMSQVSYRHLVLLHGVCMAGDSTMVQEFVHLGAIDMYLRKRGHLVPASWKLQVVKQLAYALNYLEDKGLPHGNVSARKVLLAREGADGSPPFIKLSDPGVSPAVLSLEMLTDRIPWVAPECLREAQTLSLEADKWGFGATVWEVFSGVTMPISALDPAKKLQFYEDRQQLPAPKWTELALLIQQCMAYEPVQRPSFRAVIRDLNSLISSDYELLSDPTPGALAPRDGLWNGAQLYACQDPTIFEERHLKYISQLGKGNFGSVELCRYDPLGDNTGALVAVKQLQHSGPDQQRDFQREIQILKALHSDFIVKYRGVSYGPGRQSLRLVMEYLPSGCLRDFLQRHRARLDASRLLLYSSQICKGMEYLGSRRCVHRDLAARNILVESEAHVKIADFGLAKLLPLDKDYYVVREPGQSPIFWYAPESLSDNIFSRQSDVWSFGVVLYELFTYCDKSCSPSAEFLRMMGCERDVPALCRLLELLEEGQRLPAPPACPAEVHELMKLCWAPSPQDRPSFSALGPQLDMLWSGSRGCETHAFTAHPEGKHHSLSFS
As to the kind of experiment: Test 1: inhibitory activity to JAK3 tyrosine kinase (ELISA). It is filed as biochemical. The note with it: 25 μM ATP in substrate solution, 30° C. for 1 hour, n=2. A digest of the protocol:
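ELISA of JAK3 kinase activity with absorbance read at 450 nm. Compounds were tested from DMSO dilution series at 100-fold the measurement concentrations (1000–0.01 μM), diluted up to 20 times in assay buffer, against a DMSO negative control. IC50 was estimated by non-linear regression of absorbance.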

Counter-ions that a name gives are not always drawn.

T1 sequence (O60674 whole entry): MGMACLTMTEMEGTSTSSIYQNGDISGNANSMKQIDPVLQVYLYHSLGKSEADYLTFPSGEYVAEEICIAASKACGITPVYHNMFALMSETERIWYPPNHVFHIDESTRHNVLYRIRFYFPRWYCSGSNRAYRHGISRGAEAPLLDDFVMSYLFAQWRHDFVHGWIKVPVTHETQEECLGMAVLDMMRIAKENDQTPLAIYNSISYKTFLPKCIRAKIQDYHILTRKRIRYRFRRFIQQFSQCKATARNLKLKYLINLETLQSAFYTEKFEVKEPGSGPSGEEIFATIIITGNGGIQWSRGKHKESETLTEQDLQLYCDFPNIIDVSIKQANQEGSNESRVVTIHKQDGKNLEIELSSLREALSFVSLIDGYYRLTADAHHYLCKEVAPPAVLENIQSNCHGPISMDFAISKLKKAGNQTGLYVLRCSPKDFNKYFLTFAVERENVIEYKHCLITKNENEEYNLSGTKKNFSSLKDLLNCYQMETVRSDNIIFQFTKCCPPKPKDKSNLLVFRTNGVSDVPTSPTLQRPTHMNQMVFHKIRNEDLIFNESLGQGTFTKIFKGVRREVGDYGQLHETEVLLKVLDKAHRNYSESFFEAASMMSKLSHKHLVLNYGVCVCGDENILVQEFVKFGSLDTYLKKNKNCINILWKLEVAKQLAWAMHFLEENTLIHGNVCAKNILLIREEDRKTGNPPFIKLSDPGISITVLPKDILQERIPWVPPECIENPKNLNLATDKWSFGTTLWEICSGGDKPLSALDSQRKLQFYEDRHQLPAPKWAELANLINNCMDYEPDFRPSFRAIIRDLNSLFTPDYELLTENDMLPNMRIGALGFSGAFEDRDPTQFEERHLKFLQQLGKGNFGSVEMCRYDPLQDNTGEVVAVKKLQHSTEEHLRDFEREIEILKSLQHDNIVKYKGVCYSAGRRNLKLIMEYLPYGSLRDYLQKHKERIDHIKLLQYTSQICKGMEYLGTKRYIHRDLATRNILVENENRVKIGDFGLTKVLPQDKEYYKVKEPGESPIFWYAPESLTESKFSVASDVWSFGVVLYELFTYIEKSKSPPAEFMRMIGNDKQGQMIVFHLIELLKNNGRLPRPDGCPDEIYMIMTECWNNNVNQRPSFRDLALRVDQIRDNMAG

Consider `COc1ncc(-c2cc(Nc3cnccn3)nc(N[C@@H](C)c3ccc(F)cc3)n2)s1` [Example 53, (S)—N^2-[1-(4-Fluorophenyl)ethyl]-6-(2-methoxythiazol-5-yl)-N^4-(pyrazin-2-yl)pyrimidine-2,4-diamine], for which the IC50 in assay [1] came to 5.9 nM; in assay [2], 390 nM.

On to `C[C@H](Nc1nc(Nc2cnccn2)cc(-c2nccs2)n1)c1ccc(F)cc1` [Example 54, (S)—N^2-[1-(4-Fluorophenyl)ethyl]-N^4-(pyrazin-2-yl)-6-(thiazol-2-yl)pyrimidine-2,4-diamine], for which the IC50 in assay [1] was found to be 22 nM; in assay [2], 1800 nM.

Consider `C[C@H](Nc1nc(Nc2cnccn2)cc(-c2ccc(C#N)nc2)n1)c1ccc(F)cc1` [Example 55, (S)-5-{2-[1-(4-Fluorophenyl)ethylamino]-6-(pyrazin-2-ylamino)pyrimidin-4-yl}picolinonitrile], for which the IC50 in assay [1] was determined as 2 nM; in assay [2] it was 190 nM.

As for `C[C@H](Nc1nc(Nc2cnccn2)cc(-c2ccc(C(N)=O)nc2)n1)c1ccc(F)cc1` [Example 57, (S)-5-{2-[1-(4-Fluorophenyl)ethylamino]-6-(pyrazin-2-ylamino)pyrimidin-4-yl}picolinamide], the IC50 in assay [1] was determined as 1.3 nM; in assay [2], 82 nM.

Turning to `C[C@H](Nc1nc(Nc2cnccn2)cc(N2CCNC(C(N)=O)C2)n1)c1ccc(F)cc1` (stereo partly drawn) [Example 58, 4-{2-[(S)-1-(4-Fluorophenyl)ethylamino]-6-(pyrazin-2-ylamino)pyrimidin-4-yl}piperazin-2-carboxamide], the figures for the IC50 in assay [1] and in assay [2] were 0.69 nM and 26 nM, respectively.

For the molecule `C[C@H](Nc1nc(Nc2cnccn2)cc(N2CCC(N)C2)n1)c1ccc(F)cc1` (stereo partly drawn) [Example 59, 6-(3-Aminopyrrolidin-1-yl)-N^2-[(S)-1-(4-fluorophenyl)ethyl]-N^4-(pyrazin-2-yl)pyrimidine-2,4-diamine], the results for the IC50 in assay [1] and in assay [2] were 1.7 nM and 60 nM, respectively.

In the case of `C[C@H](Nc1nc(Nc2cnccn2)cc(N(CCO)CCO)n1)c1ccc(F)cc1` [Example 61, (S)-2-({2-[1-(4-Fluorophenyl)ethylamino]-6-(pyrazin-2-ylamino)pyrimidin-4-yl}(2-hydroxyethyl)amino)ethan-1-ol hydrochloride], the IC50 was found to be 6 nM in assay [1] and 150 nM in assay [2].

Take `C[C@H](Nc1nc(NCCN(C)C)cc(Nc2cnccn2)n1)c1ccc(F)cc1` [Example 62, (S)—N^4-[2-(Dimethylamino)ethyl]-N^2-[1-(4-fluorophenyl)ethyl]-N^6-(pyrazin-2-yl)pyrimidine-2,4,6-triamine dihydrochloride]: the IC50 in assay [1] was determined as 2.2 nM; in assay [2] it was 65 nM.

Regarding `C[C@H](Nc1nc(Nc2cnccn2)cc(N2CCCC(C(N)=O)C2)n1)c1ccc(F)cc1` (stereo partly drawn) [Example 63, 1-{2-[(S)-1-(4-Fluorophenyl)ethylamino]-6-(pyrazin-2-ylamino)pyrimidin-4-yl}piperidin-3-carboxamide hydrochloride], the IC50 in assay [1] is 1 nM; in assay [2], 36 nM.

`C[C@H](Nc1nc(Nc2cnccn2)cc(N2CCC[C@H]2C(N)=O)n1)c1ccc(F)cc1` [Example 64, (S)-1-{2-[(S)-1-(4-Fluorophenyl)ethylamino]-6-(pyrazin-2-ylamino)pyrimidin-4-yl}pyrrolidin-2-carboxamide hydrochloride]: the 50% inhibitory concentration (IC50) stood at 7 nM in assay [1] and 220 nM in assay [2].

On to `C[C@H](Nc1nc(Nc2cnccn2)cc(-c2cc[nH]c2)n1)c1ccc(F)cc1` [Example 66, (S)—N^2-[1-(4-Fluorophenyl)ethyl]-N^4-(pyrazin-2-yl)-6-(1H-pyrrol-3-yl)pyrimidine-2,4-diamine], for which the results for the IC50 in assay [1] and in assay [2] were 1.8 nM and 37 nM, respectively.

On to `C[C@H](Nc1nc(Nc2cnccn2)cc(N2C[C@H](O)CC2=O)n1)c1ccc(F)cc1` [Example 67, (R)-1-{2-[(S)-1-(4-Fluorophenyl)ethylamino]-6-(pyrazin-2-ylamino)pyrimidin-4-yl}-4-hydroxypyrrolidin-2-one], for which the results for the IC50 in assay [1] and in assay [2] were 11 nM and 470 nM, respectively.

For `C[C@H](Nc1nc(NCC2CCCO2)cc(Nc2cnccn2)n1)c1ccc(F)cc1` (stereo partly drawn) [Example 68, N^2-[(S)-1-(4-Fluorophenyl)ethyl]-N^4-(pyrazin-2-yl)-N^6-[(tetra hydrofuran-2-yl)methyl]pyrimidine-2,4,6-triamine], the IC50 in assay [1] is 1.5 nM; in assay [2] it was 34 nM.

For the molecule `C[C@H](Nc1nc(Nc2cnccn2)cc(N2CCC[C@H]2CO)n1)c1ccc(F)cc1` [Example 69, ((S)-1-{2-[(S)-1-(4-Fluorophenyl)ethylamino]-6-(pyrazin-2-ylamino)pyrimidin-4-yl}pyrrolidin-2-yl)methanol], the IC50 in assay [1] was 2.6 nM; in assay [2] it was 83 nM.

For the molecule `C[C@H](Nc1nc(Nc2cnccn2)cc(N2CCC[C@@H]2CO)n1)c1ccc(F)cc1` [Example 70, ((R)-1-{2-[(S)-1-(4-Fluorophenyl)ethylamino]-6-(pyrazin-2-ylamino)pyrimidin-4-yl}pyrrolidin-2-yl)methanol hydrochloride], the half-inhibitory concentration (IC50) in assay [1] was found to be 1.5 nM; in assay [2], 65 nM.

Take `C[C@H](Nc1nc(Nc2cnccn2)cc(N2CCC(O)CC2)n1)c1ccc(F)cc1` [Example 71, (S)-1-{2-[1-(4-Fluorophenyl)ethylamino]-6-(pyrazin-2-ylamino)pyrimidin-4-yl}piperidin-4-ol hydrochloride]: the IC50 amounted to 0.72 nM in assay [1] and 26 nM in assay [2].

Consider `C[C@H](Nc1nc(Nc2cnccn2)cc(N2CC(O)C2)n1)c1ccc(F)cc1` [Example 72, (S)-1-{2-[1-(4-Fluorophenyl)ethylamino]-6-(pyrazin-2-ylamino)pyrimidin-4-yl}azetidin-3-ol hydrochloride], for which the values for the IC50 in assay [1] and in assay [2] were 0.96 nM and 31 nM, respectively.

As for `C[C@H](Nc1nc(Nc2cnccn2)cc(N2CCCC(O)C2)n1)c1ccc(F)cc1` (stereo partly drawn) [Example 73, 1-{2-[(S)-1-(4-Fluorophenyl)ethylamino]-6-(pyrazin-2-ylamino)pyrimidin-4-yl}piperidin-3-ol hydrochloride], the IC50 in assay [1] was found to be 1.3 nM; in assay [2], 48 nM.

Consider `C[C@H](Nc1nc(Nc2cnccn2)cc(-c2cncc(C#N)c2)n1)c1ccc(F)cc1` [Example 74, (S)-5-{2-[1-(4-Fluorophenyl)ethylamino]-6-(pyrazin-2-ylamino)pyrimidin-4-yl}nicotinonitrile], for which the values for the IC50 in assay [1] and in assay [2] were 3.8 nM and 230 nM, respectively.

As for `C[C@H](Nc1nc(Nc2cnccn2)cc(-c2nn[nH]n2)n1)c1ccc(F)cc1` [Example 75, (S)—N^2-[1-(4-Fluorophenyl)ethyl]-N^4-(pyrazin-2-yl)-6-(2H-tetrazol-5-yl)pyrimidine-2,4-diamine], the values for the IC50 in assay [1] and in assay [2] were 12 nM and 630 nM, respectively.

Take `C[C@H](Nc1nc(NCCN)cc(Nc2cnccn2)n1)c1ccc(F)cc1` [Example 76, (S)—N^4-(2-Aminoethyl)-N^2-[1-(4-fluorophenyl)ethyl]-N^6-(pyrazin-2-yl)pyrimidine-2,4,6-triamine dihydrochloride]: the IC50 turned out to be 2.5 nM in assay [1] and 57 nM in assay [2].

In the case of `C[C@H](Nc1nc(NCCNS(C)(=O)=O)cc(Nc2cnccn2)n1)c1ccc(F)cc1` [Example 77, (S)—N-(2-{2-[1-(4-Fluorophenyl)ethylamino]-6-(pyrazin-2-ylamino)pyrimidin-4-ylamino}ethyl)methanesulfonamide hydrochloride], the values for the IC50 in assay [1] and in assay [2] were 0.73 nM and 37 nM, respectively.

Consider `CC(=O)NCCNc1cc(Nc2cnccn2)nc(N[C@@H](C)c2ccc(F)cc2)n1` [Example 78, (S)—N-(2-{2-[1-(4-Fluorophenyl)ethylamino]-6-(pyrazin-2-ylamino)pyrimidin-4-ylamino}ethyl) acetamide hydrochloride], for which the IC50 in assay [1] amounted to 1.4 nM; in assay [2], 35 nM.
